In patent US5789387A (priority 1996, dated 1998):
“Also recorded” adds a separate entry of the source.

Columns and labels:
[1] = test system: Coccidioides immitis; details: in vitro, literature; cited from earlier work
[2] = test system: Candida albicans; details: in vitro; prolonged exposure; literature; cited from earlier work
[3] = test system: Candida albicans strain B311; assay: quantitative recovery of viable yeast from kidneys in rat model of systemic candidiasis, continuous intravenous infusion; type: in vivo; details: for decrease in viable yeast per gram of tissue / Geometric mean log10 CFU/gm ± S.E.M. (kidney): 96 h; for Geometric mean log10 CFU/gm ± S.E.M. (kidney): inoculum 1×10^6 cfu/rat
Protocol: (§1) Candida albicans strain B311 (originally obtained from H. Hasenclever, National Institutes of Health, Bethesda, Md.) was employed in the following examples. For growth of yeast inocula, frozen culture aliquots were inoculated into 2% glucose, 1% yeast extract broth and grown at 35° C. with shaking until the culture entered the early log phase of growth. Yeast were collected by centrifugation, washed, and adjusted to the appropriate concentration in sterile phosphate-buffered saline (PBS).
A rat model of systemic candidiasis was used to assess the effect of nikkomycin Z in vivo. […] The inoculum and the subsequent drug treatment was administered via an indwelling catheter placed in the jugular vein that was "tunneled" out the back and placed inside a protective, flexible, metal sheath. For both experiments, therapy was initiated 12-14 h after infection with nikkomycin Z (formulated in a vehicle of 2% dimethylsulfoxide (DMSO)/ 98% dextrose (5%)) administered continuously at 330 mg/kg/day; control animals were treated with vehicle. In the first experiment, animals were treated continuously for 72 h. In the second experiment, animals were treated continuously for 96 h. Drug and vehicle were administered continuously at a volume of one ml per hour. At 7 or 9 h after cessation of treatment, respectively, all animals were euthanized for the removal of kidneys, which were cultured for the quantitative recovery of viable yeast. From each animal, the two kidneys were placed into tared, sterile tubes (one tube per animal, i.e., two kidneys per tube) containing ten ml of sterile PBS. The kidneys were then weighed and the tube contents homogenized. Organ homogenates were diluted in serial fashion and cultured on Sabourauds agar plates containing 50 μg/ml chloramphenicol for the quantitative recovery of viable yeast. The plates were incubated overnight at room temperature and colonies enumerated. Calculations were made to determine the log10 cfu's per gram of tissue for each animal.
Experiments similar to those described above were performed to determine the effectiveness of low doses of Nikkomycin Z in reducing the yeast load in organs of infected animals in the rat model of systemic candidiasis. Experimental details such as yeast used, growth conditions, rats used, and methods of inoculation and drug delivery were as described above in Sections 6.1 and 6.2. Inoculum levels were 1×10^6 cfu/rat. Therapy was initiated 14 h after yeast infection and nikkomycin Z was administered continuously at either 33 or 100 mg/kg/day for a total of 96 h; control animals were treated with vehicle. Test solutions were delivered from syringes using infusion pumps; syringes and solutions were changed daily. After cessation of treatment, all animals were euthanized for the removal of kidneys, which were cultured for the quantitative recovery of viable yeast. Organ removal and culture were done as above. Organ homogenates were cultured on Sabourauds agar and incubated overnight for the enumeration of yeasts as above.

[4] = test system: Candida albicans B311; assay: prevention of mortality in rats infected with lethal doses of Candida albicans, continuous intravenous infusion; type: in vivo, rat infected with Candida albicans B311
Protocol: as §1
Using methods similar to those described above, rats were infected intravenously with a higher inoculum level; i.e., 3.2×10^6 cfu/rat, to induce mortalities. Fourteen hours after infection, treatment by continuous infusion was initiated with nikkomycin Z administered continuously at 330 mg/kg/day; control animals were treated with vehicle. Treatment was continued for 96 h, then animals were held for a total of 28 days for observation of mortalities.
Experiments similar to those described above in this Section were performed to determine the effect of low doses of nikkomycin Z in preventing mortality in animals infected with Candida albicans. Using methods similar to those described above, rats were infected intravenously with 1.05×10^7 cfu/rat of C. albicans B311, a dose that would normally rapidly induce mortalities. The inoculum and the subsequent drug treatment was administered via an indwelling catheter placed in the jugular vein. For the experiment, therapy was initiated 14 h after infection with yeast and nikkomycin Z was administered continuously at 33 or 100 mg/kg/day; control animals were treated with vehicle. All animals were treated continuously for 96 h, with test solutions delivered from syringes using infusion pumps. Syringes and solutions were changed daily. Animals were held for a total of 30 days for observation of mortalities.

[5] = plasma levels after subcutaneous sustained release gel (PLURONIC F127) or single intravenous administration, HPLC; type: in vivo; details: rat, single intravenous administration, read-out: mean residence time (MRT), nikkomycin Z total compounds
[6] = plasma concentration of nikkomycin Z following continuous intravenous administration, HPLC/SPE; type: in vivo, rat (outbred male albino, strain S/A)
Protocol: The experimental animals were outbred male albino rats (strain S/A, Simonsen Laboratories, Gilroy, Calif.), 350-400 g average weight, housed one per cage, fed rodent chow and water ad libitum, and identified by ear tags. Rats receiving continuous intravenous administration of nikkomycin Z were cannulated in the left carotid artery and right jugular vein.
Continuous intravenous administration involved a 2 hour loading dose of 20 mg/kg/hour nikkomycin Z and then an infusion rate of 33 mg/kg/day over 24 hours. The formulation contained 1 mg/ml nikkomycin Z in sterile 5% dextrose. Blood samples of 1 ml were withdrawn at 0, 0.25, 0.5, 1, 2, 4, 6 and 12 h.
Nikkomycin Z was extracted from the plasma samples using solid phase extraction (SPE) columns. The SPE matrix was phenylboronate (PBA) which covalently binds nikkomycin Z at high pH. After washing with 20 mM sodium carbonate/bicarbonate alkaline buffer, nikkomycin Z was eluted from the extraction column with a 20 mM glycine solution at pH 1.2. Following a drying and reconstitution step, nikkomycin Z plasma concentration was determined using reverse phase HPLC. The plasma concentrations of nikkomycin Z derived from the HPLC analysis were plotted against time.

[7] = test system: Candida albicans; details: cited from earlier work
[8] = test system: Candida albicans; details: oral, 10-14 day period; cited from earlier work
[9] = test system: C. albicans; details: subcutaneous, high concentrations; cited from earlier work
[10] = test system: Candida; details: subcutaneous injections beginning one hour after inoculation; cited from earlier work
[11] = test system: chitin synthase; details: in words; cited from earlier work
[12] = test system: plants, fish, or mammals; details: under reasonable doses; cited from earlier work
[13] = test system: chitin synthesis; details: subcutaneous, high concentrations; cited from earlier work
[14] = bolus intravenous once daily, up to 20 days

Q: Which “concentration at which C. immitis is rapidly susceptible” value [1] does the source give for `NC(=O)OC[C@H](O)[C@@H](O)[C@H](N)C(=O)N[C@H](C(=O)O)[C@H]1O[C@@H](n2cc(C(=O)O)c(=O)[nH]c2=O)[C@H](O)[C@@H]1O` [polyoxin D] here?
A: 60 to 100 µM

Q: And the “effect on Candida cells (in words)” value [2]?
A: exhibited a phenomenon called "chaining". Although deformed, these cells were able to survive several replications, though ultimately they became sensitive to osmotic pressures and would lyse

Q: With `C[C@@H]([C@H](N)C(=O)N[C@H](C(=O)O)[C@H]1O[C@@H](n2ccc(=O)[nH]c2=O)[C@H](O)[C@@H]1O)[C@H](O)c1ccc(O)cn1` [nikkomycin Z] as the molecule, how does the “reduction of yeast load in organs (in words)” value ([3]; 33 mg/kg/day continuous infusion, 96 h (4 days)) read?
A: sufficient to dramatically reduce the yeast load in organs of infected animals; also recorded: significantly reduce the yeast organ load

Q: And the “decrease in viable yeast per gram of tissue” value ([3]; 33 mg/kg/day)?
A: approximately 1 log10 units

Q: And the “Geometric mean log10 CFU/gm ± S.E.M. (kidney)” value ([3]; 33 mg/kg/day)?
A: 4.23 ± 0.15 log10 CFU/gm

Q: And the “decrease in viable yeast per gram of tissue” value ([3]; 100 mg/kg/day)?
A: ~2 log10 units

Q: And the “Geometric mean log10 CFU/gm ± S.E.M. (kidney)” value ([3]; 100 mg/kg/day)?
A: 3.48 ± 0.15 log10 CFU/gm

Q: What about the “Geometric mean log10 CFU/gm ± S.E.M. (kidney), Exp. 1” value ([3]; Exp. 1, 330 mg/kg/day continuous infusion over 72 h, inoculum 6.2×10^5 cfu/rat) of the same molecule?
A: 3.09 ± .16 log10 CFU/gm

Q: What about the “Geometric mean log10 CFU/gm ± S.E.M. (kidney), Exp. 2” value ([3]; Exp. 2, 330 mg/kg/day continuous infusion over 96 h, inoculum […]10^6 cfu/rat) of the same molecule?
A: 3.73 ± .05 log10 CFU/gm

Q: What about the survival ([4]; 33 mg/kg/day continuous infusion 96 h, inoculum 1.05×10^7 cfu/rat, 30 days observation) of the same molecule?
A: all animals receiving nikkomycin Z at either 33 or 100 mg/kg/day by continuous infusion survived the entire observation period; also recorded: complete protection of rats against a lethal challenge with Candida albicans

Q: And the survival ([4]; 100 mg/kg/day continuous infusion 96 h, inoculum 1.05×10^7 cfu/rat, 30 days observation)?
A: all animals receiving nikkomycin Z at either 33 or 100 mg/kg/day by continuous infusion survived the entire observation period

Q: And the survival ([4]; 330 mg/kg/day continuous infusion 96 h, inoculum 3.2×10^6 cfu/rat, 28 days observation)?
A: all animals receiving nikkomycin Z by continuous infusion survived the entire observation period

Q: What about the MRT [5] of the same molecule?
A: 12 min

Q: What about the “steady state plasma concentration” value ([6]; infusion 33 mg/kg/day intravenous after loading dose, 33 mg/kg/day) of the same molecule?
A: about 170 ng/ml

Q: And the Tmax ([6]; rat, plasma, 2 hour loading dose of 20 mg/kg/h, then 33 mg/kg/day intravenous)?
A: 60 min

Q: And the Cmax ([6]; rat, plasma, 2 hour loading dose of 20 mg/kg/h, then 33 mg/kg/day intravenous, read-out: maximum plasma concentration)?
A: ~6600 ng/mL

Q: What about the “concentration at which C. immitis is rapidly susceptible” value [1] of the same molecule?
A: 60 to 100 µM

Q: And the “efficacy as characterized by others” value [7, 14]?
A: modest efficacy; also recorded: limited efficacy

Q: And the “mortality of infected mice” value [7, 14]?
A: a delay in the onset of mortalities in infected mice; also recorded: essentially all mice died shortly after cessation of therapy

Q: What about the “promotion of survival and reduction of fungal burden in kidneys (prior studies)” value ([7]; summary of earlier studies with reasonable delay between challenge and administration (oral, iv bolus, sc)) of the same molecule?
A: at best in a fungistatic fashion with only marginal activity in promoting survival and only limited ability to reduce the fungal burden in the kidneys

Q: And the survival [8]?
A: animals ultimately succumbed to infection

Q: And the “numbers of yeasts in kidneys / efficacy” value [9]?
A: treatment did not result in any reduction in numbers of yeasts

Q: What about the “protection against experimental candidiasis” value [10] of the same molecule?
A: some protection

Q: What about the “inhibition of chitin synthase” value [11] of the same molecule?
A: potent inhibitor

Q: And the toxicity [12]?
A: no toxicity against plants, fish, or mammals under reasonable doses

Q: What about the “chitin synthesis in vivo” value [13] of the same molecule?
A: depress chitin synthesis in vivo
